Read-outs that look alike come from different tables or passages of the source.
Test system: HCV 1b genotype
Test: HCV Replicon assay (HCV 1b genotype)
Type: cell-based, Hepatitis C virus
Details: Hepatitis C virus, HCV 1b genotype replicon
Description: An HCV Replicon assay was utilized in the present disclosure, and was prepared, conducted and validated as described in commonly owned PCT/US2006/022197 and in O'Boyle et. al. Antimicrob Agents Chemother. 2005 April; 49(4):1346-53. Assay methods incorporating luciferase reporters have also been used as described (Apath.com).
HCV-neo replicon cells and replicon cells containing mutations in the NS5A region were used to test the currently described family of compounds. The compounds were determined to have more than 10-fold less inhibitory activity on cells containing mutations than wild-type cells. Thus, the compounds of the present disclosure can be effective in inhibiting the function of the HCV NS5A protein and are understood to be as effective in combinations as previously described in application PCT/US2006/022197 and commonly owned WO/04014852. Further, the compounds of the present disclosure can be effective against the HCV 1b genotype. It should also be understood that the compounds of the present disclosure can inhibit multiple genotypes of HCV. […] In one embodiment, compounds of the present disclosure are inhibitory versus 1a, 1b, 2a, 2b, 3a, 4a, and 5a genotypes.

[1] = class symbol, read-out: Range (EC50 values against HCV 1b)
[2] = Effective 50% inhibitory concentration, read-out: 1b EC50

Compound | EC50 [1] | EC50 [2]
COC(=O)N[C@H](C(=O)N1CCOCC1c1ncc(-c2ccc(C#Cc3ccc(-c4cnc(C5COCCN5C(=O)[C@@H](NC(=O)OC)C(C)C)[nH]4)cc3)cc2)[nH]1)C(C)C (stereo in doubt) [Example N5, methyl ((1S)-1-(((3S)-3-(4-(4-((4-(2-((3S)-4-((2S)-2-((methoxycarbonyl)amino)-3-methylbutanoyl)-3-morpholinyl)-1H-imidazol-4-yl)phenyl)ethynyl)phenyl)-1H-imidazol-2-yl)-4-morpholinyl)carbonyl)-2-methylpropyl)carbamate] | 0.002 to 0.099 nM | –
COC(=O)N[C@@H](C(=O)N1CCC[C@H]1c1nc(-c2ccc(-c3ccc(-c4ccc(-c5c[nH]c([C@@H]6CCCN6C(=O)[C@H](NC(=O)OC)c6ccccc6)n5)cc4)cc3)cc2)c[nH]1)c1ccccc1 [Example D-1, dimethyl (1,1′:4′,1″-terphenyl-4,4″-diylbis(1H-imidazole-4,2-diyl(2S)-2,1-pyrrolidinediyl((1R)-2-oxo-1-phenyl-2,1-ethanediyl)))biscarbamate] | 0.002 to 0.099 nM | –
CN(C)[C@@H](C(=O)N1CCC[C@H]1c1nc(-c2ccc(-c3ccc(-c4ccc(-c5c[nH]c([C@@H]6CCCN6C(=O)[C@@H](c6ccccc6)N(C)C)n5)cc4)cc3)cc2)c[nH]1)c1ccccc1 [Example D-2, (1R)-2-((2S)-2-(4-(4″-(2-((2S)-1-((2R)-2-(dimethylamino)-2-phenylacetyl)-2-pyrrolidinyl)-1H-imidazol-5-yl)-1,1′:4′,1″-terphenyl-4-yl)-1H-imidazol-2-yl)-1-pyrrolidinyl)-N,N-dimethyl-2-oxo-1-phenylethanamine] | 0.1 to 0.99 nM | –
COC(=O)N[C@H](C(=O)N1CCC[C@H]1c1ncc(-c2ccc(C#Cc3ccc4c(c3)CCc3nc([C@@H]5CCCN5C(=O)[C@@H](NC(=O)OC)C(C)C)[nH]c3-4)cc2)[nH]1)C(C)C [Example D-3, methyl ((1S)-1-(((2S)-2-(4-(4-((2-((2S)-1-((2S)-2-((methoxycarbonyl)amino)-3-methylbutanoyl)-2-pyrrolidinyl)-4,5-dihydro-1H-naphtho[1,2-d]imidazol-7-yl)ethynyl)phenyl)-1H-imidazol-2-yl)-1-pyrrolidinyl)carbonyl)-2-methylpropyl)carbamate] | 0.002 to 0.099 nM | 0.006 nM
COC(=O)N[C@@H](C(=O)N1CCC[C@H]1c1ncc(-c2ccc(C#Cc3ccc4c(c3)CCc3nc([C@@H]5CCCN5C(=O)[C@H](NC(=O)OC)c5ccccc5)[nH]c3-4)cc2)[nH]1)c1ccccc1 [Example D-4, methyl ((1R)-2-((2S)-2-(4-(4-((2-((2S)-1-((2R)-2-((methoxycarbonyl)amino)-2-phenylacetyl)-2-pyrrolidinyl)-4,5-dihydro-1H-naphtho[1,2-d]imidazol-7-yl)ethynyl)phenyl)-1H-imidazol-2-yl)-1-pyrrolidinyl)-2-oxo-1-phenylethyl)carbamate] | 0.002 to 0.099 nM | –
COC(=O)N[C@@H](C(=O)N1CCC[C@H]1c1ncc(-c2ccc(C#Cc3ccc4c(ccc5nc([C@@H]6CCCN6C(=O)[C@H](NC(=O)OC)c6ccccc6)[nH]c54)c3)cc2)[nH]1)c1ccccc1 [Example D-5, methyl ((1R)-2-((2S)-2-(7-((4-(2-((2S)-1-((2R)-2-((methoxycarbonyl)amino)-2-phenylacetyl)-2-pyrrolidinyl)-1H-imidazol-4-yl)phenyl)ethynyl)-1H-naphtho[1,2-d]imidazol-2-yl)-1-pyrrolidinyl)-2-oxo-1-phenylethyl)carbamate] | 0.002 to 0.099 nM | –
COC(=O)N[C@H](C(=O)N1CCC[C@H]1c1ncc(-c2ccc(C#Cc3ccc4c(ccc5nc([C@@H]6CCCN6C(=O)[C@@H](NC(=O)OC)C(C)C)[nH]c54)c3)cc2)[nH]1)C(C)C [Example D-6, methyl ((1S)-1-(((2S)-2-(4-(4-((2-((2S)-1-((2S)-2-((methoxycarbonyl)amino)-3-methylbutanoyl)-2-pyrrolidinyl)-1H-naphtho[1,2-d]imidazol-7-yl)ethynyl)phenyl)-1H-imidazol-2-yl)-1-pyrrolidinyl)carbonyl)-2-methylpropyl)carbamate] | 0.002 to 0.099 nM | –
COC(=O)N[C@H](C(=O)N1[C@@H]2C[C@@H]2C[C@H]1c1ncc(-c2ccc(C#Cc3ccc4c(ccc5nc([C@@H]6C[C@H]7C[C@H]7N6C(=O)[C@@H](NC(=O)OC)C(C)C)[nH]c54)c3)cc2)[nH]1)C(C)C [Example D-7, methyl ((1S)-1-(((1R,3S,5R)-3-(4-(4-((2-((1R,3S,5R)-2-((2S)-2-((methoxycarbonyl)amino)-3-methylbutanoyl)-2-azabicyclo[3.1.0]hex-3-yl)-1H-naphtho[1,2-d]imidazol-7-yl)ethynyl)phenyl)-1H-imidazol-2-yl)-2-azabicyclo[3.1.0]hex-2-yl)carbonyl)-2-methylpropyl)carbamate] | 0.002 to 0.099 nM | –
COC(=O)N[C@@H](C(=O)N1[C@@H]2C[C@@H]2C[C@H]1c1ncc(-c2ccc(C#Cc3ccc4c(ccc5nc([C@@H]6C[C@H]7C[C@H]7N6C(=O)[C@H](NC(=O)OC)c6ccccc6)[nH]c54)c3)cc2)[nH]1)c1ccccc1 [Example D-8, methyl ((1R)-2-((1R,3S,5R)-3-(7-((4-(2-((1R,3S,5R)-2-((2R)-2-((methoxycarbonyl)amino)-2-phenylacetyl)-2-azabicyclo[3.1.0]hex-3-yl)-1H-imidazol-4-yl)phenyl)ethynyl)-1H-naphtho[1,2-d]imidazol-2-yl)-2-azabicyclo[3.1.0]hex-2-yl)-2-oxo-1-phenylethyl)carbamate] | 0.002 to 0.099 nM | 0.005 nM
COC(=O)N[C@H](C(=O)N1[C@@H]2C[C@@H]2C[C@H]1c1nc2c([nH]1)-c1ccc(C#Cc3ccc4c(c3)CCc3nc([C@@H]5C[C@H]6C[C@H]6N5C(=O)[C@@H](NC(=O)OC)C(C)C)[nH]c3-4)cc1CC2)C(C)C [Example D-9, methyl ((1S)-1-(((1R,3S,5R)-3-(7-((2-((1R,3S,5R)-2-((2S)-2-((methoxycarbonyl)amino)-3-methylbutanoyl)-2-azabicyclo[3.1.0]hex-3-yl)-4,5-dihydro-1H-naphtho[1,2-d]imidazol-7-yl)ethynyl)-4,5-dihydro-1H-naphtho[1,2-d]imidazol-2-yl)-2-azabicyclo[3.1.0]hex-2-yl)carbonyl)-2-methylpropyl)carbamate] | 0.002 to 0.099 nM | –
COC(=O)N[C@H](C(=O)N1[C@@H]2C[C@@H]2C[C@H]1c1nc2ccc3cc(C#Cc4ccc5c(ccc6nc([C@@H]7C[C@H]8C[C@H]8N7C(=O)[C@@H](NC(=O)OC)C(C)C)[nH]c65)c4)ccc3c2[nH]1)C(C)C [Example D-10, methyl ((1S)-1-(((1R,3S,5R)-3-(7-((2-((3S)-2-((2S)-2-((methoxycarbonyl)amino)-3-methylbutanoyl)-2-azabicyclo[3.1.0]hex-3-yl)-1H-naphtho[1,2-d]imidazol-7-yl)ethynyl)-1H-naphtho[1,2-d]imidazol-2-yl)-2-azabicyclo[3.1.0]hex-2-yl)carbonyl)-2-methylpropyl)carbamate] | 0.002 to 0.099 nM | –
COC(=O)N[C@H](C(=O)N1[C@@H]2C[C@@H]2C[C@H]1c1nc2ccc3cc(C#Cc4ccc5c(ccc6nc([C@@H]7C[C@H]8C[C@H]8N7C(=O)[C@@H](NC(=O)OC)C7CCOCC7)[nH]c65)c4)ccc3c2[nH]1)C(C)C [Example D-11, methyl ((1S)-2-((1R,3S,5R)-3-(7-((2-((1R,3S,5R)-2-((2S)-2-((methoxycarbonyl)amino)-3-methylbutanoyl)-2-azabicyclo[3.1.0]hex-3-yl)-1H-naphtho[1,2-d]imidazol-7-yl)ethynyl)-1H-naphtho[1,2-d]imidazol-2-yl)-2-azabicyclo[3.1.0]hex-2-yl)-2-oxo-1-(tetrahydro-2H-pyran-4-yl)ethyl)carbamate] | 0.002 to 0.099 nM | –
COC(=O)N[C@H](C(=O)N1CCC[C@H]1c1nc(-c2cccc(C#Cc3cccc(-c4c[nH]c([C@@H]5CCCN5C(=O)[C@@H](NC(=O)OC)C(C)C)n4)c3)c2)c[nH]1)C(C)C [Example J1, methyl ((1S)-1-(((2S)-2-(4-(3-((3-(2-((2S)-1-((2S)-2-((methoxycarbonyl)amino)-3-methylbutanoyl)-2-pyrrolidinyl)-1H-imidazol-4-yl)phenyl)ethynyl)phenyl)-1H-imidazol-2-yl)-1-pyrrolidinyl)carbonyl)-2-methylpropyl)carbamate] | 0.002 to 0.099 nM | –
COC(=O)N[C@H](C(=O)N1CCC[C@H]1c1nc(-c2cccc(C#Cc3cccc(-c4c[nH]c([C@@H]5CCCN5)n4)c3)c2)c[nH]1)C(C)C [Example J1.1, methyl ((1S)-2-methyl-1-(((2S)-2-(4-(3-((3-(2-((2S)-2-pyrrolidinyl)-1H-imidazol-4-yl)phenyl)ethynyl)phenyl)-1H-imidazol-2-yl)-1-pyrrolidinyl)carbonyl)propyl)carbamate] | 10 to 350 nM | 339 nM
COC(=O)N[C@H](C(=O)N1CCC[C@H]1c1ncc(-c2cccc(C#Cc3cccc(-c4cnc([C@@H]5CCCN5C(=O)[C@@H](NC(=O)OC)C5CCOCC5)[nH]4)c3)c2)[nH]1)C1CCOCC1 [Example J2, dimethyl (1,2-ethynediylbis(3,1-phenylene-1H-imidazole-4,2-diyl(2S)-2,1-pyrrolidinediyl((1S)-2-oxo-1-(tetrahydro-2H-pyran-4-yl)-2,1-ethanediyl)))biscarbamate] | 0.1 to 0.99 nM | 0.12 nM

From US8796466B2, “Hepatitis C virus inhibitors” (Bristol-Myers Squibb Company, priority 2009, dated 2014)
